Experimental data from patent publication US8198321B2, “Anti-microorganism terpenic composition” (priority 2006, dated 2012).

Tests used:
[1] = test system: HIV-1Bal (R5-tropic); assay: Test for inhibition of macrophage infection; type: cell-based
Text: (§1) In order to carry out cytotoxicity and infection-inhibiting activity tests, three cell types and two viral strains were used. This involved a laboratory strain HIV-1NDK(X4-tropic) which was amplified by lymphocytes originating from healthy donors, and a primary strain HIV-1Bal (R5-tropic) which was amplified by macrophages.
(§2) As regards the cell types, macrophages and dendritic cells were obtained from peripheral blood mononuclear cells. In addition, lymphocytes were provided.
(§3) As regards the inhibitory activity, the macrophages or the dendritic cells are incubated with viral particles of the abovementioned strains, HIV-1NDK(X4-tropic) or HIV-1Bal (R5-tropic), in the presence and absence of the terpenic compositions. The cells are subsequently washed and then put back in culture and, finally, centrifuged. The supernatants are then recovered and the viral particles are lyzed in order to measure the concentration of a viral protein using the ELISA assay. In this way, the inhibitory activity of the terpenic compositions is evaluated by comparison between the nontreated infected cells and the treated infected cells.
(§4) Next, the inhibition of the infection of the macrophages was evaluated. Since the latter are potential reservoirs for HIV, it is a question of measuring the ability of the terpenic composition to prevent infection of the macrophages.

[2] = test system: HIV-1Bal (R5-tropic); assay: Test for inhibition of transfer from dendritic cells to T lymphocytes; type: cell-based
Procedure: (§5) In addition, tests for transfer of the virus, from the dendritic cells to autologous T lymphocytes, i.e. T lymphocytes originating from the same stem cells, were carried out.
(§6) For this, dendritic cells are transferred and incubated with each of the terpenic compositions and the virus. Next, after washing, autologous T lymphocytes are added in a ratio of one dendritic cell to five T lymphocytes. The concentration of viral proteins of the abovementioned type is then evaluated by means of the ELISA assay.
(§7) Dendritic cells express, at their surface, an adhesion protein, DC-SIGN, which forms a viral receptor capable of capturing HIV and of facilitating the infection of permissive cells via a “trans-infection” mechanism. This is because the DC-SIGN receptor can interact with the envelope of HIV and hold the virion in an infectious state so as to subsequently transmit it to permissive T lymphocytes in the adjacent lymph nodes.

[3] = test system: HIV-1NDK (X4-tropic); assay: as above; type: cell-based
Procedure: as §5, §6, §7

[4] = test system: HIV-1Bal (R5-tropic); assay: Test for inhibition of dendritic cell infection; type: cell-based
Text: as §1, §2, §3
(§8) Furthermore, tests were carried out on the inhibition of dendritic cell infection, since these cells are involved in HIV transmission at the mucosal level.

[5] = test system: HIV-1NDK (X4-tropic); assay: Test for inhibition of dendritic cell infection; type: cell-based
Text: as §1, §2, §3, §8

[6] = test system: HIV-1NDK (X4-tropic); assay: Test for inhibition of macrophage infection; type: cell-based
Text: as §1, §2, §3, §4

[7] = test system: X4 strains; assay: Direct activity on X4 strains (noninfectious / detergent activity); design: species or system HIV-1; settings: diluted to 1/100th
[8] = diluted to 1/200th, listed as Third
[9] = diluted to 1/200th, listed as third preparation
[10] = diluted to 1/2000th, listed as Fourth
[11] = diluted to 1/2000th, listed as fourth preparation

Substance: zinc aceto-salicylo-borneolate [Fifth preparation]
- inhibition of infection of macrophages with strains of the R5-tropic group ([1]; diluted to 50%): more than 50%

Substance: zinc ascorbo-camphorate [Third preparation]
- inhibition of transfer from dendritic cells to T lymphocytes, HIV-1Bal (R5-tropic) [2, 8]: >95%
- inhibition of transfer from dendritic cells to T lymphocytes, HIV-1Bal (R5-tropic) [2, 9]: more than 95%
- inhibition of transfer from dendritic cells to T lymphocytes, HIV-1Bal (R5-tropic) ([2]; diluted to 1/2000th): the same results
- inhibition of transfer from dendritic cells to T lymphocytes, HIV-1NDK (X4-tropic) [3, 8]: >95%
- inhibition of transfer from dendritic cells to T lymphocytes, HIV-1NDK (X4-tropic) [3, 9]: more than 95%
- inhibition of dendritic cell infection, HIV-1Bal (R5-tropic) [4, 8]: >95%
- inhibition of dendritic cell infection, HIV-1Bal (R5-tropic) [4, 9]: more than 95%
- inhibition of dendritic cell infection, HIV-1NDK (X4-tropic) [5, 8]: >95%
- inhibition of dendritic cell infection, HIV-1NDK (X4-tropic) [5, 9]: more than 95%
- inhibition of macrophage infection, HIV-1Bal (R5-tropic) [1, 8]: >95%
- inhibition of macrophage infection, HIV-1Bal (R5-tropic) [1, 9]: more than 95%
- inhibition of macrophage infection, HIV-1Bal (R5-tropic) ([1]; diluted to 1/2000th): the same results
- inhibition of macrophage infection, HIV-1NDK (X4-tropic) [6, 8]: >95%
- inhibition of macrophage infection, HIV-1NDK (X4-tropic) [6, 9]: more than 95%
- inhibition of macrophage infection, HIV-1NDK (X4-tropic) ([6]; diluted to 1/2000th): the same results
- detergent activity with respect to the X4 strains [7]: has a detergent activity
- rendering the X4 strains noninfectious [7]: capable of rendering the X4 strains noninfectious

Substance: zinc cinnamo-camphorate [Fourth preparation]
- inhibition of transfer from dendritic cells to T lymphocytes, HIV-1Bal (R5-tropic) ([2]; diluted to 1/2000th): 0%
- inhibition of transfer from dendritic cells to T lymphocytes, HIV-1NDK (X4-tropic) ([3]; diluted to 1/2000th): 0%
- inhibition of dendritic cell infection, HIV-1Bal (R5-tropic) ([4]; diluted to 1/2000th): 0%
- inhibition of dendritic cell infection, HIV-1NDK (X4-tropic) ([5]; diluted to 1/2000th): 0%
- inhibition of macrophage infection, HIV-1Bal (R5-tropic) [1, 10]: >90%
- inhibition of macrophage infection, HIV-1Bal (R5-tropic) [1, 11]: the same results
- inhibition of macrophage infection, HIV-1NDK (X4-tropic) [6, 10]: >90%
- inhibition of macrophage infection, HIV-1NDK (X4-tropic) [6, 11]: the same results
